Experimental data taken from EP0362382A1, “METHOD OF STERILIZING PLANT POLLEN” (VSESOJUZNY NAUCHNO-ISSLEDOVATELSKY INST. SELSKOKHOZYAISTV. …, priority 1988, dated 1989).

Columns and labels:
Sonnenblume = assay: Field test of chemical sterilisation of sunflower pollen; assay type: in vivo; conditions: Linie BK-364 (WK-364); V. Periode der Organogenese; Beispiel 80: 2%ige, 81: 0,2%ige Emulsion
Excerpt: Die gametozide Aktivitat der erfindungsgemäßen Sterilisationsmittel war im Feldversuch in verschiedenen bodenklimatischen Zonen mit Teilstücken von 10 m^2 Größe in drei- bis viermaliger Wiederholung festgestellt. Jedes Sterilisationsmittel wurde mindenstens 5 Jahre lang geprüft.
Die Entwicklung der Perioden der Organogenese wird zytologisch überwacht. Die Behandlung von Pflanzen mit dem Sterilisationsmittel erfolgt am Anfang der fünften Periode der Organogenese nach Kupermann.
Zur Kontrolle der chemischen Sterilisation des Sonnenblumenpollens werden für jede Verbindung 45 behandelte Pflanzen jeder Wiederholung benutzt, wobei 15 Pflanzen von denen zwecks Selbsbestäubung isoliert werden, Blütenkorbchen anderer 15 Pflanzen mit einem Pollengemisch, gesammelt von 20 bis 25 behandelten isolierten Körbchen, bestäubt werden, und 15 Pflanzen für freie Bestäubung gelassen werden, damit das Ansetzen von Achänen mit dem Pollen der väterlichen Form kontrolliert werden kann.
Man beurteilt die Pollensterilität von Pflanzen der Sonnenblume nach der Pollenfertilität und -keimfähigkeit, nach den morphologischen Besonderheiten von Spermien und nach der Fähigkeit von Achänen zum Ansetzen bei der Bestäubung der behandelten isolierten Pflanzen mit dem Pollen der unbehandelten väterlichen Form. Die Lebensfähigkeit der Eizelle wird nach der Samenbildung von behandelten Pflanzen bei freier Bestäubung mit der väterlichen Form bestimmt.
Man behandelt die Sonnenblume Sorte BHNNMK 8931 (WNIIMK 8931) in der V. Periode der Organogenese mit 0,5%iger wäßriger Emulsion von 4-Karboxybutyldezylsulfid, mit 1%iger Emulsion der δ, δ' -Sulfonyldivaleriansäure, 2%iger Emulsion von Bis(2-äthylhexyläther) der δ, δ' -Thiodivaleriansäure; die Sonnenblume der Linie BK-373 (WK-373) mit 2%iger Emulsion von Bis(2-äthylhexyläther) der δ δ' --Thiodivaleriansäure, mit 0,2%iger Emulsion von Bis(di--n-butyläther) der δ, δ' -Thiodivaleriansäure; die Sonnenblume der Linie BK=364 (WK-365) mit 2%iger wäßriger Emulsion von Bis(2-äthylhexyläther) der δ, δ' -Thirodivaleriansäure, mit 0,2%iger Emulsion von Bis(di-n-butyläther) der δ, δ' -Thiodivaleriansäure. Die Emulsion enthält 0,1 Masse% Kalziumalkylbenzolsulfonat mit 12 bis 14 Kohlenstoffatomen und 0,01 Masse% Dimethylsulfoxid. Als Kontrolle dienen Pflanzen, behandelt mit einem Verdünner ohne Sterilisationsmittel. Die Prüfergebnisse sind in der Tabelle 17 angegeben. […] Periode der Organogenese erhalten.

Toxicity in animal test = conditions: rat, in vivo; für Ratten
Experimental: Alle erfindungsgemäßen Thiokarbonsäuren oder ihre De- rivate, die als Sterilisationsmittel zur Verwendung kommen, waren auf die Toxizität im Tierversuch geprüft. Die Prüfergebnisse haben gezeigt, daß die angegebenen Verbindungen von schwacher oder mittlerer Toxizität sind. So beträgt beispielsweise LD50 mehr als 2000 mg/kg für Ratten bei Bis (2-äthylhexyläther) der δ, δ'-Thiodivaleriansäure, bei anderen Verbindungen liegen die LD50 -Werte auf dem gleichen Niveau.

SMILES | Prozentsatz der Sterilität (Sonnenblume) | Prozentsatz des Ansetzens von Achänen bei freier Bestäubung (Sonnenblume) | LD50 (Toxicity in animal test)
CCCCC(CC)COC(=O)CCCCSCCCCC(=O)OCC(CC)CCCC (centres unmarked) [Beispiel 80, Bis(2-äthylhexyläther) der δ, δ' -Thirodivaleriansäure] | 100,0% | 67,9% | 
CCCCOC(=O)CCCCSCCCCC(=O)OCCCC [Beispiel 81, Bis(di-n-butyläther) der δ, δ' -Thiodivaleriansäure] | 100,0% | 59,3% | 
CCCCC(CC)COC(=O)CCCCSCCCCC(=O)OCC(CC)CCCC (centres unmarked) [Bis (2-äthylhexyläther) der δ, δ'-Thiodivaleriansäure] |  |  | > 2000 mg/kg
